Assay results: patent US8252832B2, “Kinesin inhibitors as cancer therapeutics” (Novartis AG, priority 2007, dated 2012)
Like-named read-outs stand apart in the source and are kept apart here. Marks after values point to notes of the source that are not given here.

What was measured:
HCT-15 = test: CellTiter-Glo proliferation, 72 hours; assay type: cell-based; conditions: Homo sapiens; Colon, HCT-15, 72 hours
Description: (§1) Cell lines used were as follows: HCT-116 (National Cancer Institute's DCTF Tumor Repository, catalog #NCI-502568, Rockville, Md.), HCT-15 (National Cancer Institute's DCTF Tumor Repository, catalog#NCI-502711, Rockville, Md. available from American Type Tissue Collection, catalog #CLL-225), KB-3-1 (available from DSMZ, Deutsche Sammlung von Mikroorganismen und Zellkulturen GmbH (German Collection of Microorganisms and Cell Cultures—catalog number ACC 158), KB-V1 (available from DSMZ—catalog number ACC 149), AGS (available from American Type Culture Collection, Manassas Va., catalog number CRL-1739™), N87 (available from American Type Culture Collection, Manassas Va., catalog number CRL-5822), Hel92.1.7 (available from American Type Culture Collection, Manassas Va., catalog number TIB 180), K562 (available from American Type Culture Collection, Manassas Va., catalog number CRL-243™), MV4; 11 (American Tissue Culture Collection, Manassas Va., catalog number CRL-9591) and U937 (available from American Type Culture Collection, Manassas Va., catalog number CRL-1593.2).
(§2) Cells were plated in 96-well plates at densities of about 500 cells per well of a 96-well plate and allowed to grow for 24 hours. The cells were then treated with various concentrations of compounds for 72 hours. Then, 100 μl of CellTiter-Glo® reagent was added (Promega Corporation). CellTiter-Glo® is used in a homogeneous method of determining the number of viable cells using the single CellTiter-Glo® reagent to detect ATP (U.S. Pat. Nos. 6,602,677 and 7,241,584) (see Promega product catalog #G7570). Following the addition of the CellTiter-Glo® reagent, the cells were incubated in the dark for 30 minutes. The amount of luminescence was determined for each well using a Wallac Trilux plate reader, which correlates with the number of cells per well. The number of viable cells in the wells that receive only DMSO (0.5%) served as an indication of 0% inhibition, while wells without cells served as 100% inhibition of cell growth. […] This broad activity is consistent with a compound that is a mitotic inhibitor.

KB3.1 = test: CellTiter-Glo proliferation, 72 hours; assay type: cell-based; conditions: Homo sapiens, KB 3-1; Epidermoid, KB3.1, 72 hours
Description: as §1, §2

[1] = for Survival (alive/total) / % Max. Δ body weight, (Day): q4d × 3
Experimental: Experiments were performed using outbred athymic nu/nu mice (Charles River Laboratories) approximately 6-8 weeks old. Upon arrival, animals received a subcutaneous microchip implant (AVID, Folsom, La.) in the subscapular region for identification of individuals. Animals were allowed to acclimatize for 1 week before any experimental procedures began.
Compound IIa, compound IIc, compound IIa (shown below), and SB-715992 were formulated in a Captisol®-based formulation. Doses were administered intravenously (i.v.) and adjusted to each animal's body weight. Formulations were made once at the beginning of study and stored at room temperature. Clinical grade paclitaxel was purchased pre-mixed in a cremophor-based vehicle (Mayne Pharma, now Hospira, Lake Forest, Ill., catalog #NDC-6170334209) and diluted in sterile saline to provide a dose volume of 16 mL/kg for a 30 mg/kg dose administered intraperitoneally (i.p.)
For the efficacy studies, mice were enrolled with a mean tumor volume of approximately 300 mm^3. Tumor xenografts were measured in two dimensions (L and W) with digital calipers twice weekly from the start of dosing on Day 0. Tumor volume was calculated as (L×W^2)/2. Body weights were measured twice weekly and clinical observations were recorded daily. Tumor volume and body weights were captured and stored by StudyDirector software (StudyLog, South San Francisco, Calif.).

KB8.5 = test: CellTiter-Glo proliferation, 72 hours; assay type: cell-based; conditions: Homo sapiens; Epidermoid, KB8.5, 72 hours
KB8.5 tumor xenograft = KB8.5 tumor xenograft model (P-gp expressing), tumor response; assay type: in vivo, mouse; conditions: for ΔT/ΔC, Day 11 (%): q4d × 3
Experimental: Cells were cultured for fewer than 10 passages prior to use. […] All data were expressed as mean and SEM. Between-groups comparisons for final tumor measurements were performed using the one-way ANOVA pair-wise analysis. Significance was determined using Kruskal-Wallis one-way ANOVA on Ranks, followed by appropriate post-hoc test (Dunn's Method or Tukey Test) for multiple pair-wise comparisons. Statistical analysis was carried out using SigmaStat (Systat Software Inc., San Jose, Calif.).

[2] = In vivo pharmacokinetic parameters (clearance, half-life, AUC); conditions: for clearance: read-out: In vivo Clearance rate
[3] = molecular target: T1, motor domain of human KSP (Eg 5, KNSL1) (Homo sapiens, UniProt P52732); test: Assay for determining KSP activity (microtubule/KSP ATPase, Biomol Green); assay type: biochemical; conditions: read-out: In vitro activity (IC-50 - nm)
T1 construct: KSP motor protein (i.e., the KSP motor domain); made in house
T1 sequence (P52732 18-359 limits assumed): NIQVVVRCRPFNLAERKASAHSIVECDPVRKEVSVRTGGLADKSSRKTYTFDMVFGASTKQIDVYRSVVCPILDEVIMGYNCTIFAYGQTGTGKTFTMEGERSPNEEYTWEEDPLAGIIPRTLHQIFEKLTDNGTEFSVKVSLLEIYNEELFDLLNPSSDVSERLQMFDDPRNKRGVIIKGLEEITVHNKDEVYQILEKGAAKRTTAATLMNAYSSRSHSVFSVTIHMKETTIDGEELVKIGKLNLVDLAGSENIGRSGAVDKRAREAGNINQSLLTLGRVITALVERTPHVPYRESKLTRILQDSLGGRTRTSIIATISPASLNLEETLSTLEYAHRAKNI
Experimental: Purified microtubules obtained from bovine brain were purchased from Cytoskeleton Inc. (Denver, Colo., USA). The motor domain of human KSP (Eg 5, KNSL1) was cloned, expressed, and purified to greater than 95% homogeneity. Biomol Green™ was purchased from Affinity Research Products Ltd. (Matford Court, Exeter, Devon, United Kingdom). Microtubules and KSP motor protein (i.e., the KSP motor domain) were diluted in assay buffer (20 mM Tris-HCl (pH 7.5), 1 mM MgCl2, 10 mM DTT and 0.25 mg/mL BSA) to a final concentration of 35 μg/mL microtubules and 45 nM KSP. The microtubule/KSP mixture was then pre-incubated at 37° C. for 10 min to promote the binding of KSP to microtubules.
To each well of the testing plate (384-well plate) containing 1.25 μL of inhibitor or test compound in DMSO (or DMSO only, in the case of controls) were added 25 μL of ATP solution (ATP diluted to a concentration of 300 μM in assay buffer) and 25 μL of the above-described microtubule/KSP solution. The plates were incubated at RT for 1 hour. Following incubation, 65 μL of Biomol Green™ (a malachite green-based dye that detects the release of inorganic phosphate) was added to each well. The plates were incubated for an additional 5-10 minutes then the absorbance at 630 nm was determined using a Victor II plate reader. The amount of absorbance at 630 nm corresponded to the amount of KSP activity in the samples. The IC50 of each inhibitor or test compound was then determined based on the decrease in absorbance at 630 nm at each concentration, via nonlinear regression using either XLFit for Excel or Prism data analysis software by GraphPad Software Inc.

COCC(=O)N(CC[C@H](N)CF)[C@@H](c1nc(-c2cc(F)ccc2F)cn1Cc1ccccc1)C(C)(C)C [Compound Ia]
GI50 (HCT-15): 300 pM
GI50 (KB3.1): 400 pM
Survival (alive/total) ([1]; Table 15 study, 1.25 mg/kg, i.v.): 10/10
% Max. Δ body weight, (Day) ([1]; Table 15 study, 1.25 mg/kg, i.v., D11): 1 (D11) %
Survival (alive/total) ([1]; Table 15 study, 2.5 mg/kg, i.v.): 10/10
% Max. Δ body weight, (Day) ([1]; Table 15 study, 2.5 mg/kg, i.v., D4): −0.4 (D4) %
Survival (alive/total) ([1]; Table 15 study, 5 mg/kg, iv.): 10/10
% Max. Δ body weight, (Day) ([1]; Table 15 study, 5 mg/kg, iv., D4): −2 (D4) %
GI50 (KB8.5): 400 pM
efficacy in the KB8.5 tumor xenograft model (KB8.5 tumor xenograft; 5 mg/kg, q4d×3): not efficacious
ΔT/ΔC, Day 11 (%) (KB8.5 tumor xenograft; Table 15 study, 1.25 mg/kg, i.v., not statistically different from vehicle): 84%
ΔT/ΔC, Day 11 (%) (KB8.5 tumor xenograft; Table 15 study, 2.5 mg/kg, i.v., not statistically different from vehicle): 61%
ΔT/ΔC, Day 11 (%) (KB8.5 tumor xenograft; Table 15 study, 5 mg/kg, iv., not statistically different from vehicle): 66%
AUC [2]: 2670 ng·h/mL
half-life [2]: 1.95 h
clearance [2]: 29 mL/min/kg
IC50 [3]: 600 pM

C[C@H](O)C(=O)N(CC[C@H](N)CF)[C@@H](c1nc(-c2cc(F)ccc2F)cn1Cc1ccccc1)C(C)(C)C [Compound IIc]
body weight ([1]; 2.5 mg/kg treated group): significant weight loss
Survival (alive/total) ([1]; Table 14 study, 1.25 mg/kg, i.v.): 9/9
% Max. Δ body weight, (Day) ([1]; Table 14 study, 1.25 mg/kg, i.v., D11): −5 (D11) %
% Max. Δ body weight, (Day) ([1]; Table 14 study, 2.5 mg/kg, i.v., D8): −10 (D8) %
Survival (alive/total) ([1]; Table 14 study, 2.5 mg/kg, i.v., due to 4/9 mice having 15% weight loss or more): All down on Day 8
percent ΔT/ΔC (KB8.5 tumor xenograft; 1.25 mg/kg, q4d×3, day 11): 39%
ΔT/ΔC, Day 11 (%) (KB8.5 tumor xenograft; Table 14 study, 1.25 mg/kg, i.v., KB8.5 xenograft, female nu/nu mice, p < 0.05 versus vehicle): 39* %
AUC [2]: 1700 ng·h/mL
half-life [2]: 1.83 h
clearance [2]: 47 mL/min/kg
IC50 [3]: 900 pM

CC(=O)N(CC[C@H](N)CF)[C@@H](c1nc(-c2cc(F)ccc2F)cn1Cc1ccccc1)C(C)(C)C [Compound Ib]
AUC [2]: 867 ng·h/mL
half-life [2]: 1.5 h
clearance [2]: 94 mL/min/kg
IC50 [3]: 22000 pM
